≈ marks a conversion by molar mass, not a printed value. Where two headings read alike, the source gives them in different places.

The test system of one data set is Staphylococcus aureus. Nature of the data set: In-vitro antibacterial test, agar dilution MIC. The conditions noted are these: for MIC: Staphylococcus aureus, read-out: In-vitro MIC. The format is cell-based. On the technique in general: Agar dilution tests growth on a series of plates holding different concentrations.
Another data set has as its system Streptococcus pneumoniae. Description: In-vitro antibacterial test, agar dilution MIC. The format is cell-based. The conditions noted are these: Streptococcus pneumoniae, read-out: In-vitro MIC. Here is the method: (§1) Test method: the agar dilution method was used for the minimum inhibitory concentration (MIC) determination. The antibacterial chemicals were mixed with given amounts of agar in various concentrations and the mixtures were made into solid plates. Each plate had the antibacterial concentration two times higher than the next plate. Bacteria species were then added to the surface of the plates, cultured, and observed for their growth.
(§2) Other bacteria included those isolated from sputum, throat swab or urine of patients with acute bacterial respiratory tract infection or urinary tract infection and identified by the hospitals.
(§3) (S)-6-fluoro-1-methyl-4-oxo-7-(1-piperazinyl)-1H,4H-[1,3]thiazeto[3,2-a]quino line-3-carboxylic acid lactate and other test samples, equivalent to 96 mg of ulifloxacin, were dissolved in sterilized distilled water to make up 50 mL of each solution.

A further data set concerns Escherichia coli. Description: In-vitro antibacterial test, agar dilution MIC. The format is cell-based. The conditions noted are these: for MIC: Escherichia coli, read-out: In-vitro MIC.
In a further data set the test system is mice. The conditions noted are these: mouse, in vivo; cited from earlier work.
In another data set the test system is Sprague-Drwlog rats. The conditions noted are these: intravenous injection, four weeks; cited from earlier work.
The test system of the next data set is Enterobacter cloacae. Description: In-vitro antibacterial test, agar dilution MIC. The format is cell-based. The conditions noted are these: agar dilution, read-out: In-vitro MIC.
The subject of a further data set is rats. The conditions noted are these: rat, in vivo; cited from earlier work.
In a further data set the test system is Pseudomonas aeruginosa. Nature of the data set: In-vitro antibacterial test, agar dilution MIC. The format is cell-based. The conditions noted are these: for MIC: Pseudomonas aeruginosa, read-out: In-vitro MIC.
In another data set the test system is Enterococcus faecalis. Nature of the data set: In-vitro antibacterial test, agar dilution MIC. The data set is classed as cell-based. The conditions noted are these: read-out: In-vitro MIC.
Data set [1] can be described thus: Solubility test: maximum solubility in water. The conditions noted are these: thermodynamic from solid. The format is physicochemical. Here is the method:
Three lots of mesylates and three lots of lactates, respectively, were subjected to preliminary tests for maximum solubility in water. At ambient temperature (25° C.), 0.2 g of sample was dissolved in 1 mL of water. To the solution was added 0.1 g of the sample each time until the sample could no longer be dissolved. The amount of sample dissolved was the maximum solubility.

In the next data set the test system is SD rats. The conditions noted are these: for NOAEL (no observed adverse effect level) / targeted organ of toxicity: SD rats; for NOAEL (no observed adverse effect level): 28 days continuous intravenous administration, calculated based on NM394; for targeted organ of toxicity: intravenous; for rats with crystals in renal tubules / rats with kidney protein casts / rats with mild cortical tubular dilatation: after 28 days.

Data set [2] has as its system New Zealand rabbit ear vein and surrounding tissues. Description: Vascular irritation tests. The data set is classed as in vivo, New Zealand rabbits. The conditions noted are these: vein injection once a day for 3 days, high and low doses. An excerpt:
Sixteen New Zealand rabbits were divided into 4 groups: a control group and three treatment groups for compounds 4, 5, and 6, respectively; each group had 4 rabbits. The rabbits of the treatment groups were vein-injected on their left ears with high doses of the test samples and on their right ears with low doses of the test samples. The rabbits of the control group were rein-injected on their both left and right ears with sodium chloride solution. The injections continued for 3 days, once a day. Two rabbits from each group were anatomized after 24 hours of each injection.

Data set [3] deals with Klebsiella pneumoniae, Pseudomonas aeruginosa, Staphylococcus aureus, Escherichia coli, Enterococcus faecalis, Streptococcus pneumoniae, Enterobacter cloacae …. Nature of the data set: In-vitro antibacterial tests, summary over the tested bacteria. The format is cell-based. The conditions noted are these: for antibacterial activities compared with compounds 7 and 8: against the above four bacteria, concentrations calculated as equivalents to NM394; for antibacterial activity (in words): against the eight tested bacteria. Here is the method: as §1, §2, §3

The next data set has as its system Vibrio cholerae. Description: In-vitro antibacterial test, agar dilution MIC. The data set is classed as cell-based.
The next data set deals with Klebsiella pneumoniae. Nature of the data set: In-vitro antibacterial test, agar dilution MIC. The data set is classed as cell-based.
Setting [4] is: high dose group (60 mg/kg·bw), tissue microscopy.

Protocol for SD rats: The dose without toxic reaction was thereby determined and the long term toxicity to SD rats was tested. One hundred forty SD rats were randomly divided into 7 groups depending on their body weight and sex; each group had 20 rats with 10 males and 10 females. […] The rats were administrated by intravenous injection, once a day for consecutive 4 weeks. The recovery was monitored for 2 weeks after treatment.
Drug preparation: the drugs were dissolved with a saline solution to the desired concentration before administration. Administration: intravenous injection. Delivery period: 28 days continuously. Observation and inspection: Observation and inspection projects, targets and time: including the general state of observation (7), hematologic (16), biochemical blood test (18), urine (10) and pathological examination.
General observation: the appearance of signs, behavior, glands, respiratory and stool, daily observation and timely recording, discovering dead or dying animals, timely anatomical examination, food intake, and body weight once weekly.
Blood tests: abdominal aortic blood for hematology testing, in the 16 testing indicators, leukocyte classification using whole blood smear, Wright stain staining; prothrombin time (PT) with a 0.109 mmol/L of citrate Citrus medica sodium (with blood volume ratio of 1:9) anticoagulant, 3000 r/min centrifugal 10 min, taking with BE Thromotimer plasma coagulation analyzer (Germany) determination; other indicators to EDTA anticoagulant, using SWELAB AC920EO automated hematology analyzer (Sweden).
Biochemical blood tests: blood sampling method same as above, blood serum obtained by 3000 r/min centrifugal 10 min. In the 21 indicators, the Na+, K+, Cl^− were determined using EasyLyte Plus Na/K/Cl analyzer (USA), the other indexes of blood were determined using a Hitachi 7020 automatic biochemical analyzer (Japan) determination.
Urine tests: 16 h urine collection, using [sequence] 100 urine analyzer.
Pathology: after anesthesia, the animal was killed by blood letting of the abdominal aorta. System anatomy and visual observation of changes in various organs were performed; and organ weights were determined. Tissue was fixed in 10% neutral formalin; plates were made by conventional paraffin producers, HE staining, and light microscopy.
Statistical analysis: In the different groups, the body weight, hematology, blood chemistry, urine measurements, organ weights, organ coefficient were calculated for the mean±standard deviation and t-test comparison between groups. Pathological abnormalities according to their incidence and severity were compared between groups.
Description for Vibrio cholerae: The test bacterial strains were the standard quality control test strains of Klebsiella pneumoniae strains (Strains No. CMCC 46114-8), Pseudomonas aeruginosa (Strains No. ATCC 27853), Escherichia coli (Strains No. ATCC25922), and Staphylococcus aureus cocci (Strains No. ATCC25925). Other bacteria included those isolated from sputum, throat swab or urine of patients with acute bacterial respiratory tract infection or urinary tract infection and identified by the hospitals.
HCl levofloxacin injection and NaCl ciprofloxacin lactate injection were diluted with sterilized distilled water to a concentration of 1920 μg/mL.

Usually MIC stands for the lowest concentration found to suppress growth. With `CC1Sc2c(C(=O)O)c(=O)c3cc(F)c(N4CCNCC4)cc3n21` (racemic) [Ulifloxacin, 6-fluoro-1-methyl-4-oxo-7-(1-piperazinyl)-1H,4H-[1,3]thiazeto[3,2-a]quinoline-3-carboxylic acid, reference compound], the MIC in the data set on Staphylococcus aureus (agar dilution) was determined as 0.5 µg/mL (≈ 1.43 µM); with Streptococcus pneumoniae (agar dilution), 0.031 µg/mL (≈ 0.0887 µM); in the data set with Escherichia coli (agar dilution), 0.08 µg/mL (≈ 0.229 µM); in the data set with Enterobacter cloacae, 1 µg/mL (≈ 2.86 µM); in the data set with Pseudomonas aeruginosa (agar dilution), 0.5 µg/mL (≈ 1.43 µM). In addition, the “toxic effects of intravenous injection” value in the data set with mice is “losing weight, testicular atrophy, and visible pulmonary congestion”; with rats it was “convulsions, difficult breathing, injection site redness, swelling, and necrosis”. Further, the “NOAEL (no observed adverse effect level) dose” value in the data set with Sprague-Drwlog rats is on record as 3 mg/kg.

In general, solubility refers to the dissolved amount per volume that the medium holds. With `CC(O)C(=O)O.C[C@@H]1Sc2c(C(=O)O)c(=O)c3cc(F)c(N4CCNCC4)cc3n21` [Compound 4, (S)-6-fluoro-1-methyl-4-oxo-7-(1-piperazinyl)-1H,4H-[1,3]thiazeto[3,2-a]quinoline-3-carboxylic acid lactate], the minimum inhibitory concentration (MIC) with Staphylococcus aureus came out at 0.125 µg/mL. In addition, the MIC in the data set with Streptococcus pneumoniae worked out at 0.02 µg/mL. For the same molecule, in the data set with Escherichia coli, the minimal inhibitory concentration (MIC) amounted to 0.01 µg/mL. Also, in the data set on Enterococcus faecalis (agar dilution), the minimal inhibitory concentration (MIC) stood at 0.5 µg/mL. In [1] (maximum solubility in water, ambient temperature (25° C.), average of two tests, preliminary, read-out: Water Solubility), the solubility amounted to 70 mg/mL. Besides, in the data set with SD rats, the “NOAEL (no observed adverse effect level)” value is 30 mg/kg·bw and the “targeted organ of toxicity” value is “the kidney”. Also, in the data set on SD rats (setting [4]), the “rats with crystals in renal tubules” value was determined as 3, the “rats with kidney protein casts” value is given as “one”, the “rats with mild cortical tubular dilatation” value is 3 and the “rats with mild interstitial inflammatory cell infiltration” value is given as 1. In data set [2], the “irritation to ear vein and surrounding tissues” value (shortened to “irritation”) was “no irritation”. Further, in [3], the “antibacterial activities compared with compounds 7 and 8” value is “slightly stronger”; the “antibacterial activity (in words)” value is reported as “relatively strong antibacterial activity”. Further, the MIC in the data set with Enterobacter cloacae was 0.5 µg/mL. Moreover, the minimal inhibitory concentration (MIC) in the data set with Pseudomonas aeruginosa was 0.25 µg/mL.

As to `CS(=O)(=O)O.C[C@@H]1Sc2c(C(=O)O)c(=O)c3cc(F)c(N4CCNCC4)cc3n21` [Compound 5, (S)-6-fluoro-1-methyl-4-oxo-7-(1-piperazinyl)-1H,4H-[1,3]thiazeto[3,2-a]quinoline-3-carboxylic acid mesylate], the MIC with Staphylococcus aureus was 0.25 µg/mL; with Vibrio cholerae (Vibrio cholerae, read-out: In-vitro MIC), 0.02 µg/mL; in the data set on Streptococcus pneumoniae (agar dilution), 0.01 µg/mL; with Enterococcus faecalis, 0.2 µg/mL; in the data set with Klebsiella pneumoniae (Klebsiella pneumoniae) it was 0.02 µg/mL; in the data set with Enterobacter cloacae, 0.5 µg/mL. The MIC with Pseudomonas aeruginosa amounted to 0.25 µg/mL. In data set [1] (25 °C, water), this molecule registered a solubility of 490 mg/mL. In the data set with SD rats, the “NOAEL (no observed adverse effect level)” value is recorded as 30 mg/kg·bw. The “targeted organ of toxicity” value in the data set with SD rats is listed as “the kidney”. In addition, the “rats with crystals in renal tubules” value in the data set on SD rats (setting [4]) is listed as “two”. Moreover, the “rats with kidney protein casts” value with SD rats (setting [4]) was “one”. For the same molecule, the “rats with mild cortical tubular dilatation” value in the data set with SD rats (setting [4]) is on record as “two”. The “irritation” value in data set [2] is reported as “no irritation”. Also, in data set [3], the “antibacterial activities compared with compounds 7 and 8” value is “slightly stronger”. The “antibacterial activity (in words)” value in data set [3] is “relatively strong antibacterial activity”.

Regarding “(S)-6-fluoro-1-methyl-4-oxo-7-(1-piperazinyl)-1H,4H-[1,3]thiazeto[3,2-a]quinoline-3-carboxylic acid gluconate [Compound 6]”, the “In-vitro MIC” value in the data set on Staphylococcus aureus (agar dilution) came to 0.25 µg/mL; in the data set with Vibrio cholerae (agar dilution), 0.02 µg/mL; in the data set with Escherichia coli (agar dilution), 0.01 µg/mL; with Klebsiella pneumoniae it was 0.02 µg/mL; with Pseudomonas aeruginosa (agar dilution), 0.25 µg/mL. Further, in data set [2], the “irritation” value is reported as “no irritation”. In addition, the “antibacterial activities compared with compounds 7 and 8” value in data set [3] is reported as “slightly stronger”. Besides, the “antibacterial activity (in words)” value in data set [3] was “relatively strong antibacterial activity”.

The values above are taken from patent publication US20110028444A1, “PHARMACEUTICALLY ACCEPTABLE SALTS OF ANTI-INFECTION QUINOLONE COMPOUNDS” (priority 2008, published 2011).
